From ChEMBL document CHEMBL1201862, “PubChem BioAssay data set” (2004)
Activity calls are given as the source filed them.

Key:
Protein RecA = molecular target: T1, Protein RecA (Mycobacterium tuberculosis, UniProt P9WHJ3); experiment: Fluorescence Cell-Free Homogeneous Dose Retest to Identify Inhibitors of RecA-Intein Splicing Activity. [Related pubchem assays (depositor defined):AID2097, AID2223, AID489010, AID492950]; assay type: functional
T1 sequence (P9WHJ3 whole entry): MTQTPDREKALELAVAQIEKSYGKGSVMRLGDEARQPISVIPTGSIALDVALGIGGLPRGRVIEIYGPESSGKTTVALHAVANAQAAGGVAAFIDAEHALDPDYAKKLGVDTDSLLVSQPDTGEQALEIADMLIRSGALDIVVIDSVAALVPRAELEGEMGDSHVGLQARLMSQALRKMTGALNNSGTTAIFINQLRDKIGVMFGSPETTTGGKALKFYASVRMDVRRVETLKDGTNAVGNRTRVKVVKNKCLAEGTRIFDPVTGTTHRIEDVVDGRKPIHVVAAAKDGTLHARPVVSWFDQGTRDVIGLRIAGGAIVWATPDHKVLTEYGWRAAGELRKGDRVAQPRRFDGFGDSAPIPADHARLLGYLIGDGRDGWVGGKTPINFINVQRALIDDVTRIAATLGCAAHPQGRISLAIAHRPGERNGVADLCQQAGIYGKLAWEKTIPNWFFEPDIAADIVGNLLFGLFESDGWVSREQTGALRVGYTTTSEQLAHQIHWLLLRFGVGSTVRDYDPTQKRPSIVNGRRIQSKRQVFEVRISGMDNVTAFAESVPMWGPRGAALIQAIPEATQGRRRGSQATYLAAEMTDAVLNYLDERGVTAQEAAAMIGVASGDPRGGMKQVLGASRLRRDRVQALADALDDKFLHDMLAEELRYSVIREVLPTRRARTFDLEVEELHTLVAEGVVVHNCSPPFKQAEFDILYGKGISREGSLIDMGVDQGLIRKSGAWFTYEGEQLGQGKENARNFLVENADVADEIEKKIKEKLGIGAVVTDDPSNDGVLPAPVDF

[1] = molecular target: T2, Replicative DNA helicase DnaB (Mycobacterium tuberculosis, UniProt P9WMR3); experiment: DnaB intein splicing inhibitors, dose response, biochemical, cell-free fluorescence (AID 449749); assay type: functional
T2 sequence (P9WMR3 whole entry): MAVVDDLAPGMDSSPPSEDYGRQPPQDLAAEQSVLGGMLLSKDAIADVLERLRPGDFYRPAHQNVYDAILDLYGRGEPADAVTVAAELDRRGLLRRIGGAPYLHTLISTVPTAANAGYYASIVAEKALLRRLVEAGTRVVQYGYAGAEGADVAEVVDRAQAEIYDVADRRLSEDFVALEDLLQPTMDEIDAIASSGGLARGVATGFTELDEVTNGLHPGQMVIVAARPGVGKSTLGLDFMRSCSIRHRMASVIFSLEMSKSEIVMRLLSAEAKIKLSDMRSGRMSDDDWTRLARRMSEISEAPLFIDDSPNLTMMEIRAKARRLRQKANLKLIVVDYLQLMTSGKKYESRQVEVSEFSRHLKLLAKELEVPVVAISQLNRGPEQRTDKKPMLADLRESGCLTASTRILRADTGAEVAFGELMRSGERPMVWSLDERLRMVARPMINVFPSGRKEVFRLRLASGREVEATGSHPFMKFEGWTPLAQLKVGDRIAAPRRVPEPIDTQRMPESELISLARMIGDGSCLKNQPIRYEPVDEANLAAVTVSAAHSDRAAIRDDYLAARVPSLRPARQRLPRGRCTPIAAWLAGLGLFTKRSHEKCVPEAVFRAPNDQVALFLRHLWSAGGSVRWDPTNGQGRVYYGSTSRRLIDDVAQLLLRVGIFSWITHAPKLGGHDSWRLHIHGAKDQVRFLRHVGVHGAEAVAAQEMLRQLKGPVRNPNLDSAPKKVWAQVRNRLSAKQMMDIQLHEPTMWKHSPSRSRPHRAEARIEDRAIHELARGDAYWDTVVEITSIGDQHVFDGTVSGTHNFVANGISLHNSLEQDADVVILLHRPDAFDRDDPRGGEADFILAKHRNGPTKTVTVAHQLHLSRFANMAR

[2] = Luminescence Cell-Based Dose Retest to Confirm Inhibitors of Cancer Stem Cells. [Related pubchem assays (depositor defined):AID2717, AID2721]; assay type: functional; details: Homo sapiens
[3] = growth suppression of PTEN-null colon cells, dose response, cell-based, HCT116 PTEN knockout (AID 1047); assay type: functional;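 also: HCT116 colon tumor cells with PTEN knocked out; cells exposed to compound for 60 hours before readout; potency for loss of cell viability measured by luminescence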
[4] = growth suppression of beta-catenin-knockout colon cells, dose response, cell-based, HCT116, human colon tumor (AID 1045); assay type: functional;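 also: HCT116 colon tumor cells with beta catenin knocked out; cells exposed to compound for 60 hours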
[5] = molecular target: T3, Polyadenylate-binding protein 1 (Homo sapiens, UniProt P11940); experiment: PABP1 MLLE–PAM2 interaction inhibitors, dose response, miRNA deadenylation inhibitor project, biochemical, fluorescence polarization, Cy5-PAM2 peptide, secondary (AID 602260); assay type: functional; details: read-out: IC50_Mean
T3 sequence (P11940 whole entry): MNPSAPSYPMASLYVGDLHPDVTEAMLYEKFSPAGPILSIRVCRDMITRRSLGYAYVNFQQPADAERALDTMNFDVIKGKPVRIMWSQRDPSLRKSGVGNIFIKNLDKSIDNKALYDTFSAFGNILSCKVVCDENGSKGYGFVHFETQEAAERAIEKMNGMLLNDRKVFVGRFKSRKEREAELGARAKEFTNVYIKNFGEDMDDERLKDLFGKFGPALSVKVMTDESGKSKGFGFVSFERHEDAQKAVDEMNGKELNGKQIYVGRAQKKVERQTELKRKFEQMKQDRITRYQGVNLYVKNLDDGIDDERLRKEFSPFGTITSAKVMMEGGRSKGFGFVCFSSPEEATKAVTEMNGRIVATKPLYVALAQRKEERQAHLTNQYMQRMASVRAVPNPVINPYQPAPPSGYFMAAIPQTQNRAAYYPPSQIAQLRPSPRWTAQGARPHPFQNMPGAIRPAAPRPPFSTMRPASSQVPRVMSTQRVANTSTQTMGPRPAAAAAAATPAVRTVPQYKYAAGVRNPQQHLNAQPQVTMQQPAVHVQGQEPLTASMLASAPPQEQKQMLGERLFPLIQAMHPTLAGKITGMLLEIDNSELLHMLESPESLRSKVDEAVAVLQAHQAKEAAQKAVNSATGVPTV

[6] = molecular target: T3, Polyadenylate-binding protein 1; experiment: PABP1 MLLE–PAM2 binding inhibitor potency, dose response, biochemical, fluorescence polarization, FITC-PAM2 peptide (AID 602259); assay type: functional; details: read-out: IC50_Mean
Streptococcus = experiment: Group A Streptococcus viability loss, dose response, counter-screen for streptokinase expression inhibitor project, luminescence, BacTiterGlo (AID 1915); assay type: functional, organism-based;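 also: potency for reduction of bacterial viability or growth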
[7] = system: Streptococcus sp. 'group A'; experiment: growth inhibition of control SK(-) GAS strain, dose response, counter-screen for streptokinase expression inhibitor project, luminescence, kanamycin, BacTiterGlo, confirmation (AID 1900); assay type: functional, organism-based
[8] = molecular target: T4, Heat shock factor protein 1 (Mus musculus, UniProt P38532); experiment: inhibition of MG132-induced HSE-luciferase signal, confirmation, cell-based, NIH3T3, luminescence, dose retest (AID 2382); assay type: functional;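 also: NIH3T3 fibroblasts with HSF1-driven luciferase reporter stressed by proteasome inhibitor MG132; luminescence from HSF1-driven luciferase expression after 8 hours of MG132 stress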
T4 sequence (P38532 whole entry): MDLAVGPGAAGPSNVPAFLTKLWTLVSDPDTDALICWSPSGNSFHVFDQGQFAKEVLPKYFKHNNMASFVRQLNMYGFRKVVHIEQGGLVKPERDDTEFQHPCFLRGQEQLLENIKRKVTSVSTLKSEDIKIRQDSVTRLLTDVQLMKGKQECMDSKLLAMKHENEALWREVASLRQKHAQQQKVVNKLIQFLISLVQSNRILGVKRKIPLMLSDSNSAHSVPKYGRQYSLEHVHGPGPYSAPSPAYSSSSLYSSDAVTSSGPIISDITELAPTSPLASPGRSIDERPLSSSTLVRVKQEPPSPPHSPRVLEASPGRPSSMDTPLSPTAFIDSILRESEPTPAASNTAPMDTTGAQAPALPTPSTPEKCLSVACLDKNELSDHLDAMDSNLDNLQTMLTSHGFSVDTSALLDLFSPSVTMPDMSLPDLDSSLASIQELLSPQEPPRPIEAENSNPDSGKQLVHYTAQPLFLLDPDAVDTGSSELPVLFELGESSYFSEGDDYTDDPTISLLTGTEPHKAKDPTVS

[9] = molecular target: T5, RNA-binding protein pos-1 (Caenorhabditis elegans, UniProt G5EF15); experiment: inhibitors of POS-1/mex-3 RNA binding, dose response, biochemical, fluorescence polarization (AID 1964);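 also: purified POS-1 fused to maltose binding protein made in E. coli; potency of compounds blocking POS-1 binding to fluorescent RNA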
T5 sequence (G5EF15 whole entry): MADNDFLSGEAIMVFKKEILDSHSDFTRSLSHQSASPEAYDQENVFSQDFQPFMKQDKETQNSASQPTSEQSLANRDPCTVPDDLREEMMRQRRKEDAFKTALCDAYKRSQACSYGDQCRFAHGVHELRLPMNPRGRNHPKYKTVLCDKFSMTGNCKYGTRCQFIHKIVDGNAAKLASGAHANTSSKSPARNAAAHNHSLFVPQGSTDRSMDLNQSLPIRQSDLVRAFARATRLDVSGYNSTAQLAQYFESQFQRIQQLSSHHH

[10] = molecular target: T6, Zinc finger protein mex-5 (Caenorhabditis elegans, UniProt Q9XUB2); experiment: MEX-5/TCR-2 RNA interaction inhibitors, dose response, biochemical, C. elegans, fluorescence polarization (AID 1960)
T6 sequence (Q9XUB2 whole entry): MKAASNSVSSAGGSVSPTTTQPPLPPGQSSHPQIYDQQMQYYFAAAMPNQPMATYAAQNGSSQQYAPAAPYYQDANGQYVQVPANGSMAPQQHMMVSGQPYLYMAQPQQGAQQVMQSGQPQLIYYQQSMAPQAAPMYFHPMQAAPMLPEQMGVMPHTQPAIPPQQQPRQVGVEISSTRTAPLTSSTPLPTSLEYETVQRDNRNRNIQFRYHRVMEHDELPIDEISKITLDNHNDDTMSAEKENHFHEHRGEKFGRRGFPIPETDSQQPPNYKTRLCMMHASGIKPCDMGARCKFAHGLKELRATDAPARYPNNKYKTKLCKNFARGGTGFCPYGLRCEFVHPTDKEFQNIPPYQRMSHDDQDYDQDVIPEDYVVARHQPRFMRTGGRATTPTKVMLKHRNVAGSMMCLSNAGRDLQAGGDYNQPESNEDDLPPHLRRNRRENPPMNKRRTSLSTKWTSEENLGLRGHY

Structure (SMILES) | EC50 (Protein RecA) | AC50 [1] | AC50 [2] | IC50 [5] | IC50 [6] | also measured
CC1=NN(c2ccccc2)C(=O)/C1=C\c1c[nH]nc1-c1ccccc1 | 2.54 µM (active) | 4.1 µM (active) | – | – | – | –
COc1ccc(-c2c(=O)n(OC)c3ccccc3[n+]2[O-])cc1OC | > 380 µM (inactive) | > 380 µM (inactive) | – | – | – | –
COc1ccc(C2c3c(ncn(Cc4ccco4)c3=N)Oc3ccc4ccccc4c32)cc1 (stereo not given) | – | – | 4.48 µM (active) | – | – | EC50 [3]: 9.97 µM (active); EC50 [4]: 8.89 µM (active)
COc1ccc(OCCCC(=O)OCC(=O)Nc2ncc(Cl)cc2Cl)cc1 | – | – | – | > 66 µM (inactive) | 30.3 µM (inactive) | –
C=C(C)COc1ccc(-c2[nH]nc(C)c2-c2ccc(Br)cc2)c(O)c1 | – | – | 0.692 µM (active) | – | – | EC50 (Streptococcus): 4.72 µM (active); EC50 [7]: 2.99 µM (active)
COCc1n[nH]c2c1C1(CCSCC1)C(C#N)=C(N)O2 | 2.26 µM (active) | 18.5 µM (active) | – | – | – | EC50 [8]: > 195 µM (not active)
CCCCC1OC23CCCCC2C(C#N)(C(=N)O3)C1(C#N)C#N (stereo not given) | – | – | – | > 66 µM (inactive) | > 66 µM (inactive) | –
Cc1[nH]nc2c1C1(CCC(c3ccccc3)CC1)C(C#N)=C(N)O2 (stereo not given) | 1.51 µM (active) | 5.82 µM (active) | – | – | – | –
COc1cc(C2C(C#N)=C(N)Oc3c2c(-c2ccccc2)nn3-c2ccccc2)cc(OC)c1OC (stereo not given) | 27.9 µM (active) | 26.8 µM (active) | – | – | – | –
CN(C)C(=O)/C(C#N)=C\c1cc(Br)c(Sc2ccc(Cl)cc2)o1 | – | – | 4.82 µM (active) | – | – | –
COc1ccc(C(=O)NC(=S)NC2CCSC2=O)cc1 (stereo not given) | – | – | – | > 66 µM (inactive) | > 66 µM (inactive) | –
COc1ccc(NC(=O)C2Cc3ccccc3CN2C(=O)c2ccccc2)cn1 (stereo not given) | – | – | – | > 66 µM (inactive) | 13.1 µM (active) | EC50 [9]: 25.1 µM (active); EC50 [10]: > 300 µM (inconclusive)
CCCn1c(=C(C#N)C#N)s/c(=C2\C=Cc3ccccc3N2CC)c1=O | – | – | – | > 66 µM (inactive) | > 66 µM (inactive) | –
C#CCOCCOCCOCCNc1nc(N2CCN(C(=O)CCCCCCCCCCNC(=O)Cn3cc(C[C@@H](C)O)nn3)CC2)nc(N2CCN(C(=O)CCCCCCCCCCNC(=O)[C@@H]([C@H](C)O)n3cc(C)nn3)CC2)n1 | – | – | 4.67 µM (active) | – | – | –
Cc1[nH]n(-c2ccc([N+](=O)[O-])cc2)c(=O)c1/C=N/CCN1CCN(C(=O)C(C)C)CC1 | – | – | 4.61 µM (active) | – | – | EC50 [8]: > 195 µM (not active)
S=C(c1ccc(Cl)cc1)N1CCOCC1 [(4-CHLOROPHENYL)(MORPHOLINO)METHANETHIONE] | – | – | – | > 66 µM (inactive) | > 66 µM (inactive) | –
